# From patent publication US10377741B2, “Substituted heteroaryl aldehyde compounds and methods for their use in increasing tissue oxygenation” (Global Blood Therapeutics, Inc., priority 2011, dated 2019)
# Legend:
# [1] = target: T1, purified Hemoglobin S (HbS) (Homo sapiens, UniProt P68871+P69905, E7V); assay: Modulation of hemoglobin oxygen affinity: oxygen equilibrium curves (HEMOX) in purified HbS; format: biochemical, human (homozygous sickle cell patients); conditions: compound at 30 μM; 25 μM purified HbS, 45 min at 37° C.
# T1 construct: HbS was purified by a modified procedure; from tissue; host or cells: blood of homozygous sickle cell patients (CHORI); for the polymerization assay purified by the CRO VIRUSYS
# Experimental: Oxygen equilibrium curves (OEC) in purified Hemoglobin S (HbS) were measured by the change in p50, the partial pressure of oxygen at which the heme binding sites in the HbS sample are 50% saturated with oxygen. HbS was purified by a modified procedure (Antonini and Brunori, 1971; Heomoglobin and Myoglobin in their Reactions with Ligands; North Holland Publishing Company; Amsterdam, London) from blood obtained from homozygous sickle cell patients though the Hemoglobinopathy Center at Children's Hospital Oakland Research Institute (CHORI) with Institutional Review Board approval. Oxygen equilibrium curves were carried out with a HEMOX analyzer, (TCS Scientific, New Hope, Pa.). Five hundred μL of 250 μM purified HbS were diluted into 4.5 mL of HEMOX buffer (30 mM TES, 130 mM NaCl, 5 mM KCl, pH=7.4) resulting in a final hemoglobin concentration of 25 μM. The compounds were added at the final desired concentrations. The mixture was incubated for 45 min at 37° C. and then transferred to the Hemox sample chamber. The samples were saturated with oxygen by flushing with compressed air for 10 minutes. The samples were then flushed with pure nitrogen and the absorbance of deoxy-Hb was recorded as a function of the solution pO2. The oxygen equilibrium data was then fit to the Hill Model to obtain values for p50. The deoxygenation curves for both HbS alone (control) and HbS in the presence of compound were collected with the TCS software. The p50 for purified Hbs was typically 13.8±1.6. Delta p50 values were obtained from the p50 value for control minus the p50 value for HbS treated with compound divided by the p50 value for the control.
# The compounds of Table 1 that were where tested in the assay above were all found to have positive delta p50 values. Delta p50% is calculated from [[p50(HbS) −p50(HbS treated with compound)]/p50(HbS)]×100. Table 2 below lists the delta p50% values where + indicates a delta p50% of between 0 and 29, ++ indicates a delta p50% of between 30 and 50, and +++ indicates a delta p50% of 50 or greater. Unless noted otherwise, the compounds in Table 2 were tested at 30 μM.
# HbS/A = target: T2, HbS/A (Homo sapiens, UniProt P68871+P69905, E7V); assay: R/T assay (relaxed-to-tense transition under deoxygenated conditions); format: biochemical, human (homozygous sickle cell patients); conditions: compound at 9 μM; 3 μM HbS/A; % R remaining vs no treatment
# T2 construct: A mixture of HbS/A was purified from blood; from tissue; host or cells: blood of homozygous sickle cell patients (CHORI)
# Experimental: A relaxed-to-tense transition assay (“R/T assay”) was used to determine the ability of substituted benzaldehyde compounds to maintain the high-oxygen affinity relaxed (R) state of hemoglobin under deoxygenated conditions. This ability can be expressed as a “delta R” value (i.e., the change in the time-period of the R state after hemoglobin is treated with a compound, as compared to the period without treatment with the compound). Delta R is the % R to remaining after the compounds treatment compared with no treatment (e.g. if R % without treatment is 8% while with treatment with a target compound is 48% R at 30 μM, then % R is 40% for that compound.
# A mixture of HbS/A was purified from blood obtained from homozygous sickle cell patients though the Hemoglobinopathy Center at Children's Hospital Oakland Research Institute (CHORI) with Institutional Review Board approval. HbS/A (at a final concentration of 3 μM) was incubated for 1 hr at 37° C. in presence or absence of compounds in […] potassium phosphate buffer, pH=7.4 and 30 μM 2, 3 diphosphoglycerate (DPG) in 96 well plates in a final volume of 160 μl. Compounds were added at different concentrations (3 μM to 100 μM final concentrations). Plates were covered with a Mylar film. After incubation was completed the Mylar cover was removed and the plates were placed in a Spectrostar Nano plate reader previously heated at 37° C. Five minutes later, N2 (flow rate=20 L/min) was flowed through the spectrophotometer. Spectroscopic measurements (300 nm to 700 nm) were taken every 5 min for 2 hours. Data analysis was performed by using linear regression from the data retrieved for all wavelengths.
# Table 4 below lists the delta R values where + indicates a delta R of between 0 and 30, ++ indicates a delta R of between 30 and 50, and +++ indicates a delta R of 50 or greater. Unless noted otherwise, the compounds in Table 2 were tested at 30 μM.
SMILES,delta p50% [1],delta R (HbS/A)
"COc1cc(C=O)c(OCc2cncc(C)c2)cn1 [Compound 43, 2-methoxy-5-((5-methylpyridin-3-yl)methoxy)isonicotinaldehyde]",++ (a delta p50% of between 30 and 50),+ (a delta R of between 0 and 30)
"COc1cc(C=O)c(OCc2ccc3ccccc3n2)cn1 [Compound 45, 2-methoxy-5-(quinolin-2-ylmethoxy)isonicotinaldehyde]",+++ (a delta p50% of 50 or greater),++ (a delta R of between 30 and 50)
"COc1cc(C=O)c(OCc2ccncc2)cn1 [Compound 46, 2-methoxy-5-(pyridin-4-ylmethoxy)isonicotinaldehyde]",++ (a delta p50% of between 30 and 50),+ (a delta R of between 0 and 30)
"COC(=O)c1cccn2cc(COc3cnc(OC)cc3C=O)nc12 [Compound 53, methyl 2-((4-formyl-6-methoxypyridin-3-yloxy)methyl)imidazo[1,2-a]pyridine-8-carboxylate]",++ (a delta p50% of between 30 and 50),+ (a delta R of between 0 and 30)
"COc1cc(C=O)c(OCc2cccnc2Br)cn1 [Compound 63, 5-((2-bromopyridin-3-yl)methoxy)-2-methoxyisonicotinaldehyde]",+++ (a delta p50% of 50 or greater),++ (a delta R of between 30 and 50)
"COc1cc(C=O)c(OCc2cncc(Br)c2)cn1 [Compound 66, 5-((5-bromopyridin-3-yl)methoxy)-2-methoxyisonicotinaldehyde]",++ (a delta p50% of between 30 and 50),++ (a delta R of between 30 and 50)
"COc1cc(C=O)c(OCc2cccc3c2cnn3C)cn1 [Compound 84, 2-methoxy-5-((1-methyl-1H-indazol-4-yl)methoxy)isonicotinaldehyde]",++ (a delta p50% of between 30 and 50),++ (a delta R of between 30 and 50)
"Cc1ccc(OCc2cccc3c2cnn3C(=O)OC(C)(C)C)c(C=O)n1 [Compound 86, tert-butyl 4-((2-formyl-6-methylpyridin-3-yloxy)methyl)-1H-indazole-1-carboxylate]",++ (a delta p50% of between 30 and 50),+ (a delta R of between 0 and 30)
"Cc1ccc(OCc2ccc3cnn(C)c3c2)c(C=O)n1 [Compound 91, 6-methyl-3-((1-methyl-1H-indazol-6-yl)methoxy)picolinaldehyde]",++ (a delta p50% of between 30 and 50),+++ (a delta R of 50 or greater)
"Cc1ccc(OCc2cccc3ncccc23)c(C=O)n1 [Compound 119, 6-methyl-3-(quinolin-5-ylmethoxy)picolinaldehyde]",++ (a delta p50% of between 30 and 50),++ (a delta R of between 30 and 50)
"COc1cc(C=O)c(OCc2cc(-c3nn[nH]n3)cn3ccnc23)cn1 [Compound 125, 5-((6-(2H-tetrazol-5-yl)imidazo[1,2-a]pyridin-8-yl)methoxy)-2-methoxyisonicotinaldehyde]",+ (a delta p50% of between 0 and 29),
"CCOC(=O)C1CSC(c2cc(OC)ncc2OCc2cccn3ccnc23)N1 (stereo not drawn) [Compound 126, ethyl 2-(5-(imidazo[1,2-a]pyridin-8-ylmethoxy)-2-methoxypyridin-4-yl)thiazolidine-4-carboxylate]",+ (a delta p50% of between 0 and 29),
"COc1cc(C=O)c(OCc2cccnc2-c2cnn(C)c2)cn1 [Compound 127, 2-methoxy-5-((2-(1-methyl-1H-pyrazol-4-yl)pyridin-3-yl)methoxy)isonicotinaldehyde]",+ (a delta p50% of between 0 and 29),
"COc1cc(C=O)c(OCc2cccnc2-c2cn[nH]c2)cn1 [Compound 128, 5-((2-(1H-pyrazol-4-yl)pyridin-3-yl)methoxy)-2-methoxyisonicotinaldehyde]",+ (a delta p50% of between 0 and 29),
"COc1cc(C=O)c(OCc2cccnc2-n2cccn2)cn1 [Compound 134, 5-((2-(1H-pyrazol-1-yl)pyridin-3-yl)methoxy)-2-methoxyisonicotinaldehyde]",++ (a delta p50% of between 30 and 50),+ (a delta R of between 0 and 30)
"Cc1ccc(OCc2cccnc2-n2cccn2)c(C=O)n1 [Compound 135, 3-((2-(1H-pyrazol-1-yl)pyridin-3-yl)methoxy)-6-methylpicolinaldehyde]",+ (a delta p50% of between 0 and 29),
"Cc1ccc(OCc2cccnc2)c(C=O)n1 [Compound 136, 6-methyl-3-(pyridin-3-ylmethoxy)picolinaldehyde]",+ (a delta p50% of between 0 and 29),
"COC(=O)c1cc(COc2cnc(OC)cc2C=O)c2nccn2c1 [Compound 137, methyl 8-(((4-formyl-6-methoxypyridin-3-yl)oxy)methyl)imidazo[1,2-a]pyridine-6-carboxylate]",+ (a delta p50% of between 0 and 29),
"COC(=O)c1cc(COc2cnc(OC)cc2C=O)c2nc(Br)cn2c1 [Compound 138, methyl 2-bromo-8-(((4-formyl-6-methoxypyridin-3-yl)oxy)methyl)imidazo[1,2-a]pyridine-6-carboxylate]",+ (a delta p50% of between 0 and 29),
"Cc1ccc(OCc2cccn3cncc23)c(C=O)n1 [Compound 139, 3-(imidazo[1,5-a]pyridin-8-ylmethoxy)-6-methylpicolinaldehyde]",+ (a delta p50% of between 0 and 29),
"COC(=O)c1cncc(COC(=O)c2cncc(COc3cnc(OC)cc3C=O)c2)c1 [Compound 141, (5-(methoxycarbonyl)pyridin-3-yl)methyl 5-(((4-formyl-6-methoxypyridin-3-yl)oxy)methyl)nicotinate]",+ (a delta p50% of between 0 and 29),
"COc1cc(C=O)c(OCc2cccnc2-c2c(C)cnn2C)cn1 [Compound 142, 5-((2-(1,4-dimethyl-1H-pyrazol-5-yl)pyridin-3-yl)methoxy)-2-methoxyisonicotinaldehyde]",+ (a delta p50% of between 0 and 29),
"COc1cc(C=O)c(OCc2cccnc2-c2cccnc2)cn1 [Compound 161, 5-([2,3′-bipyridin]-3-ylmethoxy)-2-methoxyisonicotinaldehyde]",++ (a delta p50% of between 30 and 50),+ (a delta R of between 0 and 30)
"COCCn1nccc1-c1ncccc1COc1cnc(OC)cc1C=O [Compound 172, 2-methoxy-5-((2-(1-(2-methoxyethyl)-1H-pyrazol-5-yl)pyridin-3-yl)methoxy)isonicotinaldehyde]",++ (a delta p50% of between 30 and 50),+ (a delta R of between 0 and 30)
"COc1cc(C=O)c(OCc2cccnc2-c2ccnn2COCC[Si](C)(C)C)cn1 [Compound 193, 2-methoxy-5-((2-(1-((2-(trimethylsilyl)ethoxy)methyl)-1H-pyrazol-5-yl)pyridin-3-yl)methoxy)isonicotinaldehyde]",++ (a delta p50% of between 30 and 50),+ (a delta R of between 0 and 30)
